T1: BxlE (Streptomyces thermoviolaceus, UniProt Q76BU9)
T1 construct: gene bxlD
T1 sequence (Q76BU9 1-436): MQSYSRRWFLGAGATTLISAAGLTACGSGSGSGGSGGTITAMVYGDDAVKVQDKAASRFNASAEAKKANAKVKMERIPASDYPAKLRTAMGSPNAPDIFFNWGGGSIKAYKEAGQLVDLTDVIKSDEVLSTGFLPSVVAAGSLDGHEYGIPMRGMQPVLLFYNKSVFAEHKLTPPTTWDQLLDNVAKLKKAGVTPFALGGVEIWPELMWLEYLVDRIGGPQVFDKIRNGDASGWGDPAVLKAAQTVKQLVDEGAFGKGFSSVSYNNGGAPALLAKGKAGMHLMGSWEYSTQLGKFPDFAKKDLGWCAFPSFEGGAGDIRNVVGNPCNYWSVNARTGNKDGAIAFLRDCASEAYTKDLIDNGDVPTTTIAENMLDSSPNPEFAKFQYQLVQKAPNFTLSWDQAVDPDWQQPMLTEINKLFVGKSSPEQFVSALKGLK


Key:
XylRA [1] = assay: isothermal titration calorimetry; conditions: 10 mM Tris-HCl pH 8.0, 100 mM NaCl, 25°C; effector
XylC = target: T2, XylC; assay: isothermal titration calorimetry; assay type: binding, Vibrio sp. EA2; conditions: 10 mM Tris-HCl pH 8.0, 100 mM NaCl, 25°C
T2 construct: construct borders only in supplement

BxlE = target: T1, BxlE; assay: biochemical; design: isothermal titration calorimetry binding of xylooligosaccharides to recombinant substrate-binding proteins
XylRA [2] = target: XylRA (Vibrio sp. EA2, UniProt A0A090T8X9 1-401); assay: EMSA; xylose; EMSA: 25 ng biotin-labelled probe, 0.1-0.5 nmol XylRA in 20 uL EMSA/Gel-shift binding buffer (Beyotime), xylose present, room temperature; salt and pH not stated; conditions: protein: recombinant; tags: C-terminal His (pET-22b); chain copies: 2; label: 5'-biotin on strand 1; blunt

| Molecule | Kd (BxlE) [µM] | binding result (XylRA [2]) | further results |
| --- | --- | --- | --- |
| OC1OC[C@@H](O)[C@H](O)[C@H]1O (stereo partly shown) [X, xylose] | – | – | Kd (XylRA [1]): 5.1 µM |
| OC1OC[C@@H](O)[C@H](O[C@@H]2OC[C@@H](O)[C@H](O[C@@H]3OC[C@@H](O)[C@H](O[C@@H]4OC[C@@H](O)[C@H](O)[C@H]4O)[C@H]3O)[C@H]2O)[C@H]1O (stereo partly drawn) [β-1,3X4, β-1,3-xylotetraose] | – | – | Kd (XylC): 1 µM |
| PxylC (dsDNA) DNA 1: GGAAATAAATAGAATAAATGTGGTGAGAGATATAATAATACTTGCCATAG DNA 2: CTATGGCAAGTATTATTATATCTCTCACCACATTTATTCTATTTATTTCC | – | binds | – |
| PxylT (dsDNA) DNA 1: ACATTTAGCAAATAGGTGAAATTTGGTATCAAAAATCATAATTGATGGCG DNA 2: CGCCATCAATTATGATTTTTGATACCAAATTTCACCTATTTGCTAAATGT | – | binds | – |
| PxylT-m2 (dsDNA) DNA 1: ACATTTAGCGCATAGGTGAAATTTGGTATCGCAAATCATAATTGATGGCG DNA 2: CGCCATCAATTATGATTTGCGATACCAAATTTCACCTATGCGCTAAATGT | – | no binding | – |
| PxylB (dsDNA) DNA 1: CAATTATGTTTTTTTACAGGTGAATTCACGGATTTCACGAGTGAGTCTGA DNA 2: TCAGACTCACTCGTGAAATCCGTGAATTCACCTGTAAAAAAACATAATTG | – | binds | – |
| Pxyn26B (dsDNA) DNA 1: ACACAAAAAAAATATAAAAATATAATCAGAAAAAATCATAATTGATATTG DNA 2: CAATATCAATTATGATTTTTTCTGATTATATTTTTATATTTTTTTTGTGT | – | binds | – |

Continued, in another order:

| Kd (BxlE) [µM] | Molecule | binding result (XylRA [2]) | further results |
| --- | --- | --- | --- |
| 0.0151 ± 0.00404 | OC1OC[C@@H](O[C@@H]2OC[C@@H](O)[C@H](O)[C@H]2O)[C@H](O)[C@H]1O (stereo partly drawn) [β-1,4X2] | – | – |
| 0.00628 ± 0.00193 | OC1OC[C@@H](O[C@@H]2OC[C@@H](O[C@@H]3OC[C@@H](O)[C@H](O)[C@H]3O)[C@H](O)[C@H]2O)[C@H](O)[C@H]1O (stereo partly drawn) [β-1,4X3] | – | – |
| 0.0132 ± 0.00193 | OC1OC[C@@H](O[C@@H]2OC[C@@H](O[C@@H]3OC[C@@H](O[C@@H]4OC[C@@H](O)[C@H](O)[C@H]4O)[C@H](O)[C@H]3O)[C@H](O)[C@H]2O)[C@H](O)[C@H]1O (stereo partly drawn) [β-1,4X4] | – | – |
